Measurements as given in PubChem BioAssay AID248 (DTP/NCI, 2004).
Values joined by “and” are separate entries in the source; they are usually repeats but may differ in a detail not shown here. Equal values may be shown once. Inconclusive results and toxic doses are left out.

Tested on: L1210 leukemia ip in BDF1 mice, survival T/C
Assay: NCI In Vivo Anticancer Drug Screen. Data for tumor model L1210 Leukemia (intraperitoneal) in B6D2F1 (BDF1) mice
Conditions: endpoint: mean survival time, higher = longer survival
Procedure, shortened: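 Value reflects the ratio of survival in compound-treated mice to survival in vehicle-treated controls, with both groups carrying the same transplanted tumor.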

C[n+]1ccc(Nc2ccc(NC(=O)c3ccc(Nc4cc[n+](C)c5ccc(N)cc45)cc3N)cc2)cc1
T/C (dose: 0.25 mg/kg/injection, schedule: Q01DX005 (iv), vehicle: water): 104 % of control | T/C (dose: 0.5 mg/kg/injection, schedule: Q01DX005 (iv), vehicle: water): 97 % of control and 107 % of control | T/C (dose: 0.5 mg/kg/injection, schedule: Q01DX009 (ip), vehicle: water): 113 % of control | T/C (dose: 0.5 mg/kg/injection, schedule: Q03HX008 (ip), vehicle: water): 115 % of control | T/C (dose: 0.5 mg/kg/injection, schedule: Q03HX016 (ip), vehicle: water): 121 % of control | T/C (dose: 0.5 mg/kg/injection, schedule: Q03HX024 (sc), vehicle: water): 104 % of control | T/C (dose: 0.5 mg/kg/injection, schedule: Q04DX003 (iv), vehicle: water): 104 % of control | T/C (dose: 0.78 mg/kg/injection, schedule: Q01DX009 (ip), vehicle: saline): 100 % of control | T/C (dose: 1.0 mg/kg/injection, schedule: Q01DX005 (iv), vehicle: water): 104 % of control and 105 % of control | T/C (dose: 1.0 mg/kg/injection, schedule: Q01DX009 (ip), vehicle: water): 118 % of control | T/C (dose: 1.0 mg/kg/injection, schedule: Q01DX009 (oral), vehicle: water): 109 % of control | T/C (dose: 1.0 mg/kg/injection, schedule: Q01DX009 (sc), vehicle: saline with Tween-80): 101 % of control | T/C (dose: 1.0 mg/kg/injection, schedule: Q01DX009 (sc), vehicle: water): 106 % of control | T/C (dose: 1.0 mg/kg/injection, schedule: Q03HX016 (ip), vehicle: water): 159 % of control | T/C (dose: 1.0 mg/kg/injection, schedule: Q03HX024 (ip), vehicle: water): 165 % of control | T/C (dose: 1.0 mg/kg/injection, schedule: Q03HX024 (oral), vehicle: water): 94 % of control and 103 % of control | T/C (dose: 1.0 mg/kg/injection, schedule: Q03HX024 (sc), vehicle: water): 114 % of control | T/C (dose: 1.0 mg/kg/injection, schedule: Q04DX003 (iv), vehicle: water): 102 % of control | T/C (dose: 1.56 mg/kg/injection, schedule: Q01DX009 (ip), vehicle: saline): 114 % of control | T/C (dose: 2.0 mg/kg/injection, schedule: Q01DX001 (ip), vehicle: water): 106 % of control | T/C (dose: 2.0 mg/kg/injection, schedule: Q01DX002 (ip), vehicle: water): 110 % of control | T/C (dose: 2.0 mg/kg/injection, schedule: Q01DX005 (iv), vehicle: water): 115 % of control and 116 % of control | T/C (dose: 2.0 mg/kg/injection, schedule: Q01DX009 (ip), vehicle: water): 151 % of control and 157 % of control and 205 % of control | T/C (dose: 2.0 mg/kg/injection, schedule: Q01DX009 (oral), vehicle: water): 107 % of control | T/C (dose: 2.0 mg/kg/injection, schedule: Q03HX008 (ip), vehicle: water): 155 % of control and 170 % of control | T/C (dose: 2.0 mg/kg/injection, schedule: Q03HX016 (ip), vehicle: water): 158 % of control and 216 % of control | T/C (dose: 2.0 mg/kg/injection, schedule: Q03HX024 (ip), vehicle: water): 225 % of control and 236 % of control | T/C (dose: 2.0 mg/kg/injection, schedule: Q03HX024 (oral), vehicle: water): 102 % of control and 103 % of control | T/C (dose: 2.0 mg/kg/injection, schedule: Q03HX024 (sc), vehicle: water): 180 % of control | T/C (dose: 2.0 mg/kg/injection, schedule: Q04DX003 (ip), vehicle: water): 105 % of control | T/C (dose: 2.0 mg/kg/injection, schedule: Q04DX003 (iv), vehicle: water): 104 % of control | T/C (dose: 4.0 mg/kg/injection, schedule: Q01DX001 (ip), vehicle: water): 116 % of control | T/C (dose: 4.0 mg/kg/injection, schedule: Q01DX002 (ip), vehicle: water): 117 % of control | T/C (dose: 4.0 mg/kg/injection, schedule: Q01DX009 (ip), vehicle: water): 243 % of control and 248 % of control and 456 % of control | T/C (dose: 4.0 mg/kg/injection, schedule: Q01DX009 (oral), vehicle: water): 106 % of control | T/C (dose: 4.0 mg/kg/injection, schedule: Q01DX009 (sc), vehicle: water): 214 % of control | T/C (dose: 4.0 mg/kg/injection, schedule: Q03HX008 (ip), vehicle: water): 165 % of control and 252 % of control | T/C (dose: 4.0 mg/kg/injection, schedule: Q03HX016 (ip), vehicle: water): 178 % of control and 326 % of control | T/C (dose: 4.0 mg/kg/injection, schedule: Q03HX024 (ip), vehicle: water): 233 % of control and 329 % of control | T/C (dose: 4.0 mg/kg/injection, schedule: Q03HX024 (oral), vehicle: water): 100 % of control and 110 % of control | T/C (dose: 4.0 mg/kg/injection, schedule: Q03HX024 (sc), vehicle: water): 203 % of control | T/C (dose: 4.0 mg/kg/injection, schedule: Q04DX003 (ip), vehicle: water): 120 % of control | T/C (dose: 4.0 mg/kg/injection, schedule: Q04DX003 (iv), vehicle: water): 102 % of control | T/C (dose: 6.25 mg/kg/injection, schedule: Q01DX009 (ip), vehicle: saline): 161 % of control | T/C (dose: 8.0 mg/kg/injection, schedule: Q01DX001 (ip), vehicle: water): 116 % of control | T/C (dose: 8.0 mg/kg/injection, schedule: Q01DX005 (ip), vehicle: water): 256 % of control | T/C (dose: 8.0 mg/kg/injection, schedule: Q01DX009 (ip), vehicle: water): 326 % of control and 417 % of control and 436 % of control | T/C (dose: 8.0 mg/kg/injection, schedule: Q01DX009 (oral), vehicle: water): 98 % of control and 103 % of control and 111 % of control | T/C (dose: 8.0 mg/kg/injection, schedule: Q01DX009 (sc), vehicle: water): 195 % of control | T/C (dose: 8.0 mg/kg/injection, schedule: Q03HX008 (ip), vehicle: water): 178 % of control | T/C (dose: 8.0 mg/kg/injection, schedule: Q03HX024 (ip), vehicle: water): 153 % of control | T/C (dose: 8.0 mg/kg/injection, schedule: Q03HX024 (oral), vehicle: water): 100 % of control | T/C (dose: 8.0 mg/kg/injection, schedule: Q03HX024 (sc), vehicle: water): 163 % of control | T/C (dose: 8.0 mg/kg/injection, schedule: Q04DX003 (ip), vehicle: water): 150 % of control | T/C (dose: 10.0 mg/kg/injection, schedule: Q01DX009 (oral), vehicle: saline with Tween-80): 100 % of control | T/C (dose: 12.5 mg/kg/injection, schedule: Q01DX009 (ip), vehicle: saline): 231 % of control | T/C (dose: 16.0 mg/kg/injection, schedule: Q01DX001 (ip), vehicle: water): 161 % of control | T/C (dose: 16.0 mg/kg/injection, schedule: Q01DX002 (ip), vehicle: water): 155 % of control | T/C (dose: 16.0 mg/kg/injection, schedule: Q01DX005 (ip), vehicle: water): 225 % of control | T/C (dose: 16.0 mg/kg/injection, schedule: Q01DX009 (ip), vehicle: water): 382 % of control | T/C (dose: 16.0 mg/kg/injection, schedule: Q01DX009 (oral), vehicle: water): 98 % of control and 103 % of control | T/C (dose: 16.0 mg/kg/injection, schedule: Q01DX009 (sc), vehicle: water): 230 % of control | T/C (dose: 16.0 mg/kg/injection, schedule: Q04DX003 (ip), vehicle: water): 167 % of control and 168 % of control and 190 % of control | T/C (dose: 16.0 mg/kg/injection, schedule: Q08DX002 (ip), vehicle: water): 171 % of control | T/C (dose: 20.0 mg/kg/injection, schedule: Q01DX009 (oral), vehicle: saline with Tween-80): 104 % of control | T/C (dose: 25.0 mg/kg/injection, schedule: Q01DX001 (ip), vehicle: saline): 108 % of control | T/C (dose: 25.0 mg/kg/injection, schedule: Q01DX009 (ip), vehicle: saline): 364 % of control | T/C (dose: 32.0 mg/kg/injection, schedule: Q01DX009 (oral), vehicle: water): 100 % of control | T/C (dose: 50.0 mg/kg/injection, schedule: Q01DX001 (ip), vehicle: saline): 161 % of control | T/C (dose: 50.0 mg/kg/injection, schedule: Q01DX009 (ip), vehicle: saline): 331 % of control | T/C (dose: 64.0 mg/kg/injection, schedule: Q01DX009 (oral), vehicle: water): 106 % of control and 109 % of control | T/C (dose: 80.0 mg/kg/injection, schedule: Q01DX009 (oral), vehicle: saline with Tween-80): 106 % of control | T/C (dose: 160.0 mg/kg/injection, schedule: Q01DX009 (oral), vehicle: saline with Tween-80): 101 % of control | T/C (dose: 200.0 mg/kg/injection, schedule: Q01DX001 (ip), vehicle: saline): 257 % of control

CCCC(C)CN (stereo not drawn)
T/C (dose: 50.0 mg/kg/injection, schedule: Q01DX009 (ip), vehicle: saline with Tween-80): 100 % of control | T/C (dose: 100.0 mg/kg/injection, schedule: Q01DX009 (ip), vehicle: saline with Tween-80): 104 % of control | T/C (dose: 100.0 mg/kg/injection, schedule: Q04DX003 (ip), vehicle: saline with Tween-80): 100 % of control | T/C (dose: 200.0 mg/kg/injection, schedule: Q04DX003 (ip), vehicle: saline with Tween-80): 98 % of control
